# Laboratory results from patent publication US11980185B2, “Bioflavonoid compositions and their use for water purification and food preservation” (Citrox Biosciences Limited, priority 2018, dated 2024).
# What was measured:
# [1] = tested on: Streptococcus mutans; assay: Inhibition zone assay on BHI agar plate; type: cell-based; conditions: 48 h at 37° C. anaerobe
# Description: The antibacterial activity of ε-polylysine was semi-quantitatively assessed in a inhibition zone assay. 0.1 mL of a confluent Streptococcus mutans culture was spread over a Brain Heart Infusion (BHI) agar plate. Filter platelets (5 mm diameter) soaked with 0.01 mL substance were applied on plate. Plates were incubated 48 h at 37° C. under anaerobe conditions. The diameter of outer limit of the inhibition zones were measured, the diameter of the platelet deduced and the half result considered the radius of inhibition rings. Concentrations were tested in triplicate and their results averaged.
# [2] = tested on: Escherichia coli; assay: Direct exposure growth inhibition of mini cultures by turbidity (MIC); type: cell-based; conditions: 5 hours at 37° C.
# Description: Growth inhibition was monitored by measuring turbidity of mini cultures after 5 hours of aerobe incubation at 37° C. under agitation. Solutions were diluted to the half in cascade.
# [3] = molecular target: Glucose oxidase (Aspergillus niger, UniProt P13006); assay: Immobilisation of glucose oxidase onto silicate, residual activity in solution; conditions: 0.25 mg/mL, 2 mg/mL silicate, artificial saliva buffer, FIG. 3
# Description: 0.5 mg/mL glucose oxidase enzyme was incubated for 15 minutes at room temperature in an artificial saliva buffer composition including:
# with 2 mg/mL silicate and 0.25 mg/mL of an amino acid based compound, bovine serum albumin (BSA), lysine or ε-polylysine. The mixture was centrifuged in order to pellet the silicate and the supernatant tested for its glucose oxidase activity in presence of glucose, lactoperoxidase and a chromogen substrate (ABTS). The resulting activities were compared with the enzyme incubated with silicate in absence of an amino acid compound (FIG. 3).
# [4] = tested on: Escherichia coli; assay: Pretreatment of high binding plates, growth inhibition by turbidity; type: cell-based
# Description: High Binding plates were pre-treated with 0.1 mL of pure Citrox/ε-Polylysine solutions incubated 60′ at room temperature. The concentrations of Citrox range from 0.06% to 4%. The ε-Polylysine concentrations range from 30 mg/L to 120 mg/L. The wells have been emptied and rinsed with 0.2 mL bi-distilled water. 0.2 mL of a diluted Escherichia coli culture (turbidity: 5 mOD at 600 nm) were given to the pre-treated wells and incubated for 3 hours at 37° C. Turbidity were measured at 600 nm and percentage of growth inhibition in comparison to untreated well calculated (FIG. 1).
# [5] = tested on: chloroquine-sensitive Plasmodium chabaudi; assay: Malaria infection in mice; type: in vivo; conditions: 20 to 40 days post-treatment
# [6] = tested on: S. mutans; assay: Short exposure assay (bactericidal effect); type: cell-based, Streptococcus mutans; conditions: 0.05%, 10 minutes exposure, 5000 Colony Forming Units
# Description: The short-term antibacterial activity of Citrox was semi-quantitatively assessed in a short exposure assay. A S. mutans culture, diluted in order to contain 5000 Colony Forming Units, was incubated for 10 minutes in presence of the antibacterial substance and extemporarily plated onto a BHI agar plate. Plates were incubated at 37° C. under anaerobe conditions and colony counted. […] Citrox 0.5% reduced the count of CFU to the half (<3000 CFU).
# Chain of Glucose oxidase (P13006 17-605): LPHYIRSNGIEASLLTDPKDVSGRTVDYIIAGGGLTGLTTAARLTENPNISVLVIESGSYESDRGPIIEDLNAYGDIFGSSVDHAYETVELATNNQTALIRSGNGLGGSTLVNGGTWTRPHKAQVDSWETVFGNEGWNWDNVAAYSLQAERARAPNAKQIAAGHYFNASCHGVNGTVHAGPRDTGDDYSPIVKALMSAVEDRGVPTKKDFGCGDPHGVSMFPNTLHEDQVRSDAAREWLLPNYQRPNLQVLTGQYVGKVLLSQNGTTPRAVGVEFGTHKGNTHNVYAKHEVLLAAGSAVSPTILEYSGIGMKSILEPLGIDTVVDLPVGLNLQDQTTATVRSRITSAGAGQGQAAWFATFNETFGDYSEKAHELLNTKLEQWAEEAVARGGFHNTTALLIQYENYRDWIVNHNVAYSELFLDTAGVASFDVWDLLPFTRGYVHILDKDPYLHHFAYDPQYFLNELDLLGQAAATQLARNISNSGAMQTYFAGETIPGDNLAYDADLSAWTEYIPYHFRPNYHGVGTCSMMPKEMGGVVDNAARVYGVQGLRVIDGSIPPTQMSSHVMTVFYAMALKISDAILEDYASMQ
compound,measurement,setting,value
"CCO [Ethanol, reference compound]",Radius of inhibition rings,[1]; concentration not given,5 mm
same,Minimal inhibitory concentration (MIC),"[2]; less than 2% (6% in case of ethanol) of growth, extrapolated from FIG. 2, 1% corresponds to 10 g/L",12.5%
ε-Polylysine,immobilization of Glucose oxidase onto silicate,[3],promotes immobilization of Glucose oxidase onto silicate
same,highest ε-polylysine concentration that does not affect significantly the antibacterial effect of Citrox pretreatment,[4]; plate pretreatment together with Citrox,30 mg/L
same,inhibitory effect of pretreatment of a high binding plate,"[4]; ε-polylysine alone, titers largely above the MIC of direct exposure",does not yield any inhibitory effect
same,Radius of inhibition rings,[1]; 10 mg/L,0.5 mm
same,Radius of inhibition rings,[1]; 100 mg/L,2.5 mm
same,Radius of inhibition rings,[1]; 1000 mg/L,6.5 mm
same,Minimal inhibitory concentration (MIC),"[2]; less than 2% of growth vs untreated control, extrapolated from FIG. 2",4 mg/L
CCN(CC)CCCC(C)Nc1ccnc2cc(Cl)ccc12 (stereo not shown) [chloroquine],infection level,[5],approx. zero infection
"OO [Water peroxide, reference compound]",Radius of inhibition rings,[1]; 0.1%,1.5 mm
same,Radius of inhibition rings,[1]; 1%,5 mm
same,colony formation,[6],complete absence of colony formation
